Test results from the C3SDB collision cross section collection.
Values joined by “and” are separate entries in the source; they are usually repeats but may differ in a detail not shown here. Equal entries are not always repeated.

How the values were obtained:
[1] = instrument: DT, single field, calibrated with Agilent tune mix (Agilent)
[2] = instrument: DT, single field
[3] = [M-H]-; instrument: TW; calibrated with phosphatidylcholines (ESI+) and phosphatidylethanolamines (ESI-)
[4] = instrument: TW, calibrated with phosphatidylcholines (ESI+) and phosphatidylethanolamines (ESI-)
[5] = [M+Na]+; instrument: DT; stepped-field

Row | Structure (SMILES) | collision cross section (N2) ([1]; [M+NH4]+) [Å²] | collision cross section (N2) ([2]; [M+Na]+) | collision cross section (N2) ([2]; [M+NH4]+) | also measured
1 | CCCCCCCCC/C=C\CCCCCCCC(=O)OC[C@@H](COC(=O)CCCCCCCCCCCCCC)OC(=O)CCCCCCCCCCCCCC [TG(49:1)] | 313 | 311.82 Å² and 313.77 Å² | – | –
2 | CCCCC/C=C\C/C=C\CCCCCCCCCC(=O)O[C@H](COC(=O)CCCCCCC/C=C\CCCCCCCC)COC(=O)CCCCCCCCCCC/C=C\CCCCCCCC [TG(60:4)] | 340.7 | – | 342.69 Å² and 347.03 Å² | –
3 | CCCCC/C=C\C/C=C\C/C=C\C/C=C\CCCC(=O)OC[C@@H](COC(=O)CCCCCCCCCCCCC)OC(=O)CCCCCCCCCCCCCCCCC [TG(52:4)] | 317.6 | 314.5 Å² and 316.78 Å² | – | –
4 | CCCC/C=C\CCCCCCCC(=O)OC[C@H](COC(=O)CCCCCCCCCCCCCCCCCCCC)OC(=O)CCCCCCC/C=C\CCCC [TG(49:2)] | 310.5 | 309.35 Å² and 311.09 Å² | – | –
5 | CCCCCC/C=C\CCCCCCCC(=O)OC[C@H](COC(=O)CCCCCCCCC/C=C\CCCCCCCCCC)OC(=O)CCCCCCCCC/C=C\CCCCCCCCCC [TG(60:3)] | – | – | 344.73 Å² and 347.66 Å² and 343.58 Å² | –
6 | CC/C=C\C/C=C\C/C=C\C/C=C\C/C=C\C/C=C\CCC(=O)OC[C@@H](COC(=O)CCCCCCCCCCCCCCC)OC(=O)CCCCCCCCCCCCCCCCCCC [TG(58:6)] | – | – | 333.74 Å² | –
7 | CCCCC/C=C\C/C=C\C/C=C\C/C=C\CCCC(=O)OC[C@@H](COC(=O)CCCCCCCCCCCCCC)OC(=O)CCCCCCCCCCCCCCCCC [TG(53:4)] | 319.5 | 319.39 Å² | 318.08 Å² and 320.09 Å² and 324.43 Å² | –
8 | CCCCC/C=C\C/C=C\C/C=C\C/C=C\CCCC(=O)OC[C@@H](COC(=O)CCCCCCCCCCCCC)OC(=O)CCCCCCCCCCCCCCCCCCC [TG(54:4)] | – | 320.63 Å² and 322.94 Å² | 321.8 Å² and 324.34 Å² and 326.13 Å² | –
9 | CCCCCCCC/C=C\CCCCCCCCCC(=O)OC[C@@H](COC(=O)CCCCCCCCCCC)OC(=O)CCCCCCCCC/C=C\CCCCCCCC [TG(52:2)] | – | 319.25 Å² and 320.86 Å² and 321.71 Å² | – | –
10 | CCCCC/C=C\C/C=C\C/C=C\C/C=C\CCCCCC(=O)OC[C@@H](COC(=O)CCCCCCCCCCCCC)OC(=O)CCCCCCCCCCCCC [TG(50:4)] | 309.5 | 308.43 Å² and 310.33 Å² and 312.33 Å² | – | –
11 | CCCCC/C=C\C/C=C\C/C=C\CCCCCCCCC(=O)OC[C@@H](COC(=O)CCCCCCCCCCC)OC(=O)CCCCCCCCCCC [TG(46:3)] | 297.1 | 297 Å² and 298.89 Å² | 297.58 Å² and 299.43 Å² | –
12 | CCCCC/C=C\C/C=C\CCCCCCCC(=O)OC[C@@H](COC(=O)CCCCCCC/C=C\CCCCC)OC(=O)CCCCCCC/C=C\C/C=C\CCCCC [TG(51:5)] | – | – | 312.57 Å² | –
13 | CCCCCCCC/C=C\CCCCCCCC(=O)OC[C@@H](COC(=O)CCCCCCCCCCCC)OC(=O)CCCCCCCCCCCC [TG(44:1)] | – | 295.37 Å² and 297.74 Å² | 296.47 Å² and 298.81 Å² and 298.68 Å² | –
14 | CCCCC/C=C\C/C=C\C/C=C\CCCCC(=O)O[C@H](COC(=O)CCCCCCC/C=C\CCCCCCC)COC(=O)CCCCCCCCCCCCCCCCCCCCC [TG(57:4)] | – | – | 334.57 Å² and 337.31 Å² | –
15 | CCCCC/C=C\C/C=C\CCCCCCCCCCCC(=O)O[C@H](COC(=O)CCCCCCCCCCC)COP(=O)(O)OC[C@@H](O)CO [PG(34:2)] | 284.9 | – | – | collision cross section (N2) [3]: 268.1 Å²; collision cross section (N2) ([4]; [M+Na]+): 278.2 Å²; collision cross section (N2) ([4]; [M-H]-): 267.4 Å²; collision cross section (N2) ([1]; [M+H]+): 283.3 Å²; collision cross section (N2) ([1]; [M-H]-): 268.7 Å²
16 | CCCCCCCCCCCCC=CC[C@@H](O)[C@H](COP(=O)([O-])OCC[N+](C)(C)C)NC(=O)CCCCCCCCCCCCCCCCC [SM(36:1)] | – | – | – | collision cross section (N2) [5]: 292.4 Å²; collision cross section (N2) ([1]; [M+HCOO]-): 286.4 Å²; collision cross section (N2) ([1]; [M+H]+): 289.1 Å²; collision cross section (N2) ([1]; [M+Na]+): 290 Å²; collision cross section (N2) ([2]; [M+H]+): 286.91 Å²
17 | CC/C=C\C/C=C\C/C=C\C/C=C\C/C=C\CCCCCC(=O)O[C@@H](CO)COC(=O)CCCCCCCCCCCC [DG(35:5)] | – | – | 265.29 Å² and 266.85 Å² | –
